Assay results reported in patent publication US20260234159A1, “SMALL MOLECULE TREATMENT OF FATTY LIVER DISEASE AND HCC” (SCANDIEDGE THERAPEUTICS AB, priority 2023, published 2026).

How the values were obtained:
[1] = test system: HepG2 cells; experiment: Autophagy assay; assay type: cell-based, human; settings: 10 μM, one day
Method: (§1) HepG2 cells were seeded into a 6-well plate at 400,000 cells per well. After treatment with the compounds at desired concentration and time, TMRE (ab113852, abcam), Autophagy (ab139484, abcam), ROS (ab113851, abcam), and Lipid peroxidation (ab243377, abcam) assay were performed according to manufacturer's instructions. Fluorescence images were taken using ZOE™ Fluorescent Cell Imager (Biorad) and ROI of fluorescence intensity was measured and calculated by Image J. For microplate reader florescence assay, 40,000 of HepG2 cells were seeded into a 96-well plate and triplicated. GFP (Ex480 nm, Em530 nm) and RFP (Ex549 nm, Em574 nm) were measured using a microplate reader (Hidex Sense Meta Plus).

[2] = test system: PKL; experiment: Western blot, PKL; assay type: cell-based, human; settings: 10 μM, 2 days
Method: (§2) HepG2 cells were seeded into a 6-well plate at 400,000 cells per well. After treatment with 10 μM of JNK-IN-5A and its derivatives for two days, lysates were harvested with CelLytic M (C2978, Sigma-Aldrich). 20 μg lysate was prepared with 2× Laemmli Sample Buffer (1610737, Biorad). SDS PAGE were performed using Mini-PROTEAN® TGX™ Precast Gels (Bio-Rad) and transferred using Trans-Blot® Turbo™ Transfer System (Bio-Rad). Primary antibody, PARP (95425, Cell signalling), Caspase 3 (ab32042, abcam), Bcl-2 (ab182858), STAT1 (HPA000982, Merk), PKL (06653, Sigma), PKM (4053S, Cell signalling), GAPDH (ab8245, abcam), P53 (ab32389, abcam), p21 (ab109199, abcam), p-S349 p62 (ab211324, abcam), p62 (ab109012, abcam), c-Myc (ab32072, abcam), GPX4 (ab125066, abcam), MMP9 (MA5-32705, Invitrogen), β-actin (ab8227, abcam), and α-tubulin (ab7291, abcam) were blotted overnight and Goat Anti-Rabbit HRP (ab205718) and goat anti-mouse IgG-HRP (sc2005, Santa Cruz Biotechnology, Inc.) were blotted for secondary antibody for one hour. ImageQuantTMLAS 500 (29-0050-63, GE) was used to detect protein bands.

[3] = test system: p21; experiment: Nuclear protein western blot, p21; assay type: cell-based, human; settings: 10 μM, 2 days
Method: as §2

[4] = test system: HSD fed rats; experiment: In vivo efficacy study in high sucrose diet (HSD) steatosis rats; settings: HSD plus 30 mg/kg seven days
Excerpt: In vivo efficacy studies. After 1-week acclimation period, rats were randomly separated into two groups: control group (n=5) and high sucrose group (n=20). The control group was fed with a standard diet while the others consumed high sucrose diet (HSD). Sucrose was purchased from Sigma Chemical Co. (St Louis, MO, USA) and supplied at the dose of 10% in the drink water for two weeks.
After 2 weeks, five rats in the HSD group were randomly sacrificed for conformation of NAFLD model. Then, the remaining rats in the HSD group were separated into three sub-groups (n=5): HSD group, HSD plus BX-912 group and HSD plus JNK-IN-5A group. BX-912 and JNK-IN-5A were dissolved in DMSO and were orally administrated using oral gavage for one week (30 mg/kg/day). The HSD group were treated with vehicle solution only.
At the end of the experiment, rats were sacrificed after being anesthetized. Blood samples were collected from the abdominal aorta and centrifuged at 8000 rpm for 15 min at 4° C. The plasma was separated and stored at −80° C. until further analysis. Other internal organs, including the heart, adipose tissues, liver, kidney, muscle, intestine (duodenum, ileum, jejunum), pancreas, colon and stomach were immediately removed and then snap frozen in liquid nitrogen and stored at −80° C.; the liver was also fixed in 10% formaldehyde for histopathological examination.
Histopathological examination. The liver tissues were fixed in 10% buffered formaldehyde solution. After fixation, the tissues were passed through graded alcohol and xylene series and embedded in paraffin blocks. 5 micrometer thick sections were taken serially from the paraffin blocks. Histopathological changes were evaluated by performing hematoxylin eosin staining on the sections taken. Sections were evaluated according to histopathological findings as none (−), mild (+), moderate (++) and severe (+++).
Immunohistochemical examination. After deparaffinization, the slides were immersed in antigen retrieval solution (pH 6.0) and heated in microwave for 15 min to unmask the antigens. The sections were then dipped in 3% H2O2 for 10 min to block endogenous peroxidase activity. Protein block was dropped onto the sections, washed with PBS for 10 min. Primary antibodies (8-OH-dG, Cat No: sc-66036, Diluent Ratio: 1/100, Santa Cruz) were prepared and applied according to the usage conditions. Expose mouse and rabbit specific HRP/DAB detection IHC kit were used as follows: sections were incubated with goat anti-mouse antibody, then with streptavidin peroxidase, and finally with 3,3′ diamino benzidine+chromogen. Slides were counter stained with hematoxylin. Immunoreactivity in the sections were graded as none (−), mild (+), moderate (++) and severe (+++).

[5] = test system: p62 (SQSTM1); experiment: Western blot, p62 and p-S349 p62; assay type: cell-based, human; settings: 10 μM, 2 days
Method: as §2

[6] = test system: HepG2 cells; experiment: MTT cell viability after one week steatosis (ranking of target molecules); assay type: cell-based, human
In short: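 HepG2 cells, 60,000 per well, kept one week in steatosis medium (high-glucose DMEM, 10 μg/ml insulin, 10 μM T0901317) with 10 μM compound. Medium changed at day 0, 3 and 5. Viability measured by MTT.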

[7] = test system: HepG2 cells; experiment: Lipid peroxidation assay; assay type: cell-based, human
Method: as §1

[8] = test system: HepG2 cells; experiment: Cellular ROS assay (DCFDA); assay type: cell-based, human; settings: 10 μM, one day
Method: as §1

N#Cc1c(NC(=O)c2cccc3ccccc23)sc2c1CCCC2 [JNK-IN-5A, N-(3-cyano-4,5,6,7-tetrahydrobenzo[b]thiophen-2-yl)-1-naphthamide]
autophagy GFP signals [1]: significantly increased
PKL expression [2]: notably decreased
p21 nuclear localization [3]: localized in the nucleus
toxic effect on small intestine, large intestine, stomach, heart and muscle tissues [4]: no toxic effect
degeneration in hepatocytes in liver tissues ([4]; HSD 3w severe): mild
degeneration in renal tubule epithelium ([4]; HSD 3w severe): mild
fattening in the parenchyma cells of pancreas tissues ([4]; HSD 3w severe): mild
steatosis in hepatocytes in liver tissues ([4]; HSD 3w severe): mild
8-OH-dG expression in hepatocytes ([4]; HSD 3w strong): significantly decreased

COc1ccc(C(=O)Nc2sc3c(c2C#N)CCCCC3)cc1OC [PKL-A135, N-(3-cyano-5,6,7,8-tetrahydro-4H-cyclohepta[b]thiophen-2-yl)-3,4-dimethoxy-benzamide]
levels of p62 and P-S349 p62 [5]: significantly elevated

N#Cc1c(NC(=O)c2cccc3ccccc23)sc2c1CCN(C(=O)Nc1ccccc1OC(F)(F)F)C2 [PKL-A159]
cell viability of HepG2 [6]: exceptionally low cell viability

N#Cc1c(NC(=O)c2cccc3ccccc23)sc2c1CCN(CC(=O)Nc1cccc(Br)c1)C2 [PKL-B171]
GFP/RFP ratio (lipid peroxidation) [7]: statistically significant increase
cellular ROS [8]: significantly increased
